The source of these data is publication PMC5910032 (ACS synthetic biology, 2018).

Common to all, as to type: binding
Test [1] deals with FITC-E2 scFv VH W118G. Briefly: dose-dependent rescue of fluorescein quenching.
In test [2] the test system is FITC-E2 scFv VH W118G. Briefly: SPR inhibition in solution assay.
Test [3] deals with FITC-E2 scFv (wild-type). Briefly: fluorescein fluorescence quenching, titration of purified scFv.

The structures appear in SMILES notation.

What is called EC50 is the concentration needed to bring the measured effect to its halfway point. A low value points to higher potency in that assay. `c1ccc2[nH]ccc2c1` [indole]: the midpoint of the response in test [1], the EC50, lay at 220 µM.

The term IC50 denotes the concentration that gives 50% inhibition. `O=C1OC2(c3ccc(O)cc3Oc3cc(O)ccc32)c2ccccc21` [fluorescein]: half-maximal inhibition in test [2] (IC50) was put at 296 nM. This compound also showed an EC50 in test [3] of 23 to 27 nM.
